Values quoted from earlier work, collected in patent EP4115885A1 (Charité - Universitätsmedizin Berlin, priority 2021, dated 2023).

Columns and labels:
[1] = human, in vivo
[2] = system: model of sepsis

C[C@@H]1CN(Cc2ccc(F)cc2)CCN1C(=O)COc1ccc(Cl)cc1NC(N)=O [BAY 86-5277, N-[5-chloro-2-[2-[(2R)-4-[(4-fluorophenyl)methyl]-2-methyl-1-piperazinyl]-2-oxoethoxy]phenyl]-urea]
tolerability [1]: generally well tolerated | effect of blockade of CCR1 [2]: beneficial
